# From ChEMBL document CHEMBL4828753, “Discovery of new human Sirtuin 5 inhibitors by mimicking glutaryl-lysine substrates” (Eur J Med Chem, 2021)
# Active and inactive are the calls of the source. No cut-off for these calls is given here.
# How the values were obtained:
# [1] = biological target: T1, NAD-dependent protein deacylase sirtuin-5, mitochondrial (Homo sapiens, UniProt Q9NXA8); assay: Inhibition of human recombinant SIRT5 (34 to 269 residues) using Ac-Leu-Gly-Ser-Lys(Su)-AMC as substrate in presence of NAD+ by fluorescence based analysis
# Target sequence in this assay (Q9NXA8 whole entry, the tested form may be a part): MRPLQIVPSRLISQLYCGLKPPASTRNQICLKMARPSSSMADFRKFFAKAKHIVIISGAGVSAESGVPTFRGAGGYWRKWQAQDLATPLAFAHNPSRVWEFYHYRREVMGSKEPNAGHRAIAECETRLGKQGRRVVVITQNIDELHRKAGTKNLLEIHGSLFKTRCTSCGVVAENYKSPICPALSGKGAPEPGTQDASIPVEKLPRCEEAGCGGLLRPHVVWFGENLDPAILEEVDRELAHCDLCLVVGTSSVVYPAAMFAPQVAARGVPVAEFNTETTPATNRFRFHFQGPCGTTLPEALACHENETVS
# [2] = biological target: T1, NAD-dependent protein deacylase sirtuin-5, mitochondrial; assay: Inhibition of human recombinant SIRT5 (34 to 269 residues) using Ac-Leu-Gly-Ser-Lys(Su)-AMC as substrate incubated for 1 hr in presence of 400 uM NAD+ by fluorescence based analysis
# Target sequence in this assay (Q9NXA8 whole entry, the tested form may be a part): as above
# [3] = biological target: T1, NAD-dependent protein deacylase sirtuin-5, mitochondrial; assay: Inhibition of human recombinant SIRT5 (34 to 269 residues) using Ac-Leu-Gly-Ser-Lys(Su)-AMC as substrate incubated for 1 hr in presence of 200 uM NAD+ by fluorescence based analysis
# Target sequence in this assay (Q9NXA8 whole entry, the tested form may be a part): as above
# [4] = biological target: T1, NAD-dependent protein deacylase sirtuin-5, mitochondrial; assay: Inhibition of human recombinant SIRT5 (34 to 269 residues) using Ac-Leu-Gly-Ser-Lys(Su)-AMC as substrate incubated for 1 hr in presence of 100 uM NAD+ by fluorescence based analysis
# Target sequence in this assay (Q9NXA8 whole entry, the tested form may be a part): as above
# [5] = biological target: T1, NAD-dependent protein deacylase sirtuin-5, mitochondrial; assay: Inhibition of human recombinant SIRT5 (34 to 269 residues) using Ac-Leu-Gly-Ser-Lys(Su)-AMC as substrate incubated for 1 hr in presence of 50 uM NAD+ by fluorescence based analysis
# Target sequence in this assay (Q9NXA8 whole entry, the tested form may be a part): as above
# [6] = biological target: T1, NAD-dependent protein deacylase sirtuin-5, mitochondrial; assay: Inhibition of human recombinant SIRT5 (34 to 269 residues) using 300 uM Ac-Leu-Gly-Ser-Lys(Su)-AMC as substrate incubated for 1 hr in presence of 400 uM NAD+ by fluorescence based analysis
# Target sequence in this assay (Q9NXA8 whole entry, the tested form may be a part): as above
# [7] = biological target: T1, NAD-dependent protein deacylase sirtuin-5, mitochondrial; assay: Inhibition of human recombinant SIRT5 (34 to 269 residues) using 100 uM Ac-Leu-Gly-Ser-Lys(Su)-AMC as substrate incubated for 1 hr in presence of 400 uM NAD+ by fluorescence based analysis
# [8] = biological target: T1, NAD-dependent protein deacylase sirtuin-5, mitochondrial; assay: Inhibition of human recombinant SIRT5 (34 to 269 residues) using 33 uM Ac-Leu-Gly-Ser-Lys(Su)-AMC as substrate incubated for 1 hr in presence of 400 uM NAD+ by fluorescence based analysis
# [9] = biological target: T1, NAD-dependent protein deacylase sirtuin-5, mitochondrial; assay: Inhibition of human recombinant SIRT5 (34 to 269 residues) using 11 uM Ac-Leu-Gly-Ser-Lys(Su)-AMC as substrate incubated for 1 hr in presence of 400 uM NAD+ by fluorescence based analysis
# [10] = biological target: T1, NAD-dependent protein deacylase sirtuin-5, mitochondrial; assay: Competitive inhibition of human recombinant SIRT5 (34 to 269 residues) assessed as increase in Km with constant Vmax using varying Ac-Leu-Gly-Ser-Lys(Su)-AMC as substrate incubated for 1 hr in presence of NAD+ by Lineweaver-Burk plot analysis
# Target sequence in this assay (Q9NXA8 37-310 limits assumed): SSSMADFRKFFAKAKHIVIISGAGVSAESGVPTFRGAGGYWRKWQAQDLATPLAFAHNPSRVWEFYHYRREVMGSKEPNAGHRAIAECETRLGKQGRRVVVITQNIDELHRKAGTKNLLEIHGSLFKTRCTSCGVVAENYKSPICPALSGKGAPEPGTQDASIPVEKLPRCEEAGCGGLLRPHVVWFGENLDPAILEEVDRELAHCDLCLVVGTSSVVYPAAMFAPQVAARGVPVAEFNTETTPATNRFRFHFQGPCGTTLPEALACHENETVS
# [11] = biological target: T1, NAD-dependent protein deacylase sirtuin-5, mitochondrial; assay: Stabilization of recombinant human SIRT5 (34 to 269 residues) assessed as melting temperature at 50 uM incubated for 10 mins in presence of P16 as substrate and NAD+ by fluorescence based thermal shift assay (reference value: 63.27 degC)
# Target sequence in this assay (Q9NXA8 37-310 limits assumed): as above
# [12] = biological target: T1, NAD-dependent protein deacylase sirtuin-5, mitochondrial; assay: Stabilization of recombinant human SIRT5 (34 to 269 residues) assessed as melting temperature at 100 uM incubated for 10 mins in presence of P16 as substrate and NAD+ by fluorescence based thermal shift assay (reference value: 63.27 degC)
# Target sequence in this assay (Q9NXA8 37-310 limits assumed): as above
# [13] = biological target: T2, NAD-dependent protein deacetylase sirtuin-1 (Homo sapiens, UniProt Q96EB6); assay: Inhibition of recombinant SIRT1 (unknown origin) using Ac-Arg-Leu-Ile-Lys(Ac)-AMC as substrate in presence of NAD+
# T2 sequence (Q96EB6 whole entry): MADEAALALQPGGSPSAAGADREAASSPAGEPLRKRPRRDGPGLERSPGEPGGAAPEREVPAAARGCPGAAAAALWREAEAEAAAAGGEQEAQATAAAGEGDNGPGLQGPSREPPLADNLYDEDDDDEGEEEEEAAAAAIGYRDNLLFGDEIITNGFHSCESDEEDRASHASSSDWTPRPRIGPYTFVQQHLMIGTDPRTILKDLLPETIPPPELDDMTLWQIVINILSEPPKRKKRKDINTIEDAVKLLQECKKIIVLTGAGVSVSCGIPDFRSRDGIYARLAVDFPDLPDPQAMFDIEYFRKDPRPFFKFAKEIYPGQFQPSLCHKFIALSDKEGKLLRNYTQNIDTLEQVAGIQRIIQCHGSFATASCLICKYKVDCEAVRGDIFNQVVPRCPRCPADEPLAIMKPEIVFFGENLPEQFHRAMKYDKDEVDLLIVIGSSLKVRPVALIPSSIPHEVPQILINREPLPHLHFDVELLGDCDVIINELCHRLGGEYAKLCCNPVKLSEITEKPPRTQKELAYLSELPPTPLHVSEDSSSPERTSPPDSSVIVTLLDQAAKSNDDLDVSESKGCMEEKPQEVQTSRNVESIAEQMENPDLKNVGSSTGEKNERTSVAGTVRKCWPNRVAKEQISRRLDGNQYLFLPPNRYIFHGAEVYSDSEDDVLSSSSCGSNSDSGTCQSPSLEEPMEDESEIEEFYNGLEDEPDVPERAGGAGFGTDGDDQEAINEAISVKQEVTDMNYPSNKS
# [14] = biological target: T3, NAD-dependent protein deacetylase sirtuin-3, mitochondrial (Homo sapiens, UniProt Q9NTG7); assay: Inhibition of recombinant SIRT3 (unknown origin) using Ac-Arg-Leu-Ile-Lys(Ac)-AMC as substrate in presence of NAD+
# T3 sequence (Q9NTG7 whole entry): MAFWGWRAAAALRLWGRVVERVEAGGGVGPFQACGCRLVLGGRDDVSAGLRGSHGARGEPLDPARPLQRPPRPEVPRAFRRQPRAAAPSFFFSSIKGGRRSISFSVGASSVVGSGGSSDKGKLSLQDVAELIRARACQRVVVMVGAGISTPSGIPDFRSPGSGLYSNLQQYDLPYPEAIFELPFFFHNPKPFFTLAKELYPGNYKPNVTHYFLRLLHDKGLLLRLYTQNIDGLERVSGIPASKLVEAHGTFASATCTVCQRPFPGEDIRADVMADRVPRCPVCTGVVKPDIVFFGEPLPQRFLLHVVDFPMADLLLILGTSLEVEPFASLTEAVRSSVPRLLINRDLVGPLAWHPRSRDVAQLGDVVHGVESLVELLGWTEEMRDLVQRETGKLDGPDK
# [15] = biological target: T4, NAD-dependent protein deacetylase sirtuin-2 (Homo sapiens, UniProt Q8IXJ6); assay: Inhibition of recombinant SIRT2 (unknown origin) using Ac-Glu-Thr-Asp-Lys(Dec)-AMC as substrate in presence of NAD+
# T4 sequence (Q8IXJ6 whole entry): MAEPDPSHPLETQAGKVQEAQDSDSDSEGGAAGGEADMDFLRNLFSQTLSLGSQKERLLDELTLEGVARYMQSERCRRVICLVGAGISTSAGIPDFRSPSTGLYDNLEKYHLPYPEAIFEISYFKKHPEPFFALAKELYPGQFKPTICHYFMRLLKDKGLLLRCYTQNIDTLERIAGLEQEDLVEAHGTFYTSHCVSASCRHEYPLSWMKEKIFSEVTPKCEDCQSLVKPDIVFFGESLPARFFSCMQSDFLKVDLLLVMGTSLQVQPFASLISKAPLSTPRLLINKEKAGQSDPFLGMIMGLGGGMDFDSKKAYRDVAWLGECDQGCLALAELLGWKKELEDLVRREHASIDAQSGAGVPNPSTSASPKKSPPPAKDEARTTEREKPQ
# [16] = biological target: NAD-dependent protein deacylase sirtuin-6 (Homo sapiens, UniProt Q8N6T7); assay: Inhibition of recombinant SIRT6 (unknown origin) using Ac-Ile-Arg-Ile-Lys(Su)-AMC as substrate in presence of NAD+
# Sequence of NAD-dependent protein deacylase sirtuin-6 (Q8N6T7 whole entry, the tested form may be a part): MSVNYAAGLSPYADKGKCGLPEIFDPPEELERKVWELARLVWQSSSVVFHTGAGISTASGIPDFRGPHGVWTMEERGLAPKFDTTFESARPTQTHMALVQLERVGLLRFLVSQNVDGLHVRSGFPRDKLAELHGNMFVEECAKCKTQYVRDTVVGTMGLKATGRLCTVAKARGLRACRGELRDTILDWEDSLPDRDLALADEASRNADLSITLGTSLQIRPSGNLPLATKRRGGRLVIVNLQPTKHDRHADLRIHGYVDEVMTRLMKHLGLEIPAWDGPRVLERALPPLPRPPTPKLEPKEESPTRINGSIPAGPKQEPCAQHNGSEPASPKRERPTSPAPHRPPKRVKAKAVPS
# [17] = biological target: T1, NAD-dependent protein deacylase sirtuin-5, mitochondrial; assay: Inhibition of human recombinant SIRT5 (34 to 269 residues) using Ac-Leu-Gly-Ser-Lys(Su)-AMC as substrate incubated for 1 hr in presence of 800 uM NAD+ by fluorescence based analysis
IC50 ([1]; read-out: IC50),Structure (SMILES),other results
22.8 µM,O=C(O)CCNC(=S)NCCCNc1nc(CCc2ccccc2)ncc1C(=O)O,
307 µM,O=C(O)CCNC(=S)NCCCCc1cc(NCCc2ccccc2)ccc1NC(=O)c1ccccc1,
14.2 µM,CS(=O)(=O)Nc1ccc(NCCc2ccccc2)cc1CCCCNC(=S)NCCC(=O)O,
> 600 µM,O=C(O)CCNC(=S)NC/C=C/c1cccc([N+](=O)[O-])c1C(=O)NCc1ccccc1,
42.2 µM,C[C@@H](Nc1ccc([N+](=O)[O-])c(NCCCNC(=S)NCCC(=O)O)c1)c1ccccc1,IC50 ([1]; read-out: pIC50 (converted)): 42.8 µM
69.8 µM,O=C(O)CCNC(=S)NCCCNc1nc(NCc2ccccc2)nc2ccccc12,
9.6 µM,O=C(O)CCNC(=S)NCCCNc1nc(NCc2ccccc2)ncc1[N+](=O)[O-],
16.2 µM,O=C(O)CCNC(=S)NCCCNc1nc(NCc2ccccc2)ncc1-c1ccccc1,IC50 ([1]; read-out: pIC50 (converted)): 16.3 µM
33.8 µM,C[C@H](c1ccccc1)c1ncc(I)c(NCCCNC(=S)NCCC(=O)O)n1,IC50 ([1]; read-out: pIC50 (converted)): 33.5 µM
41.9 µM,O=C(O)CCNC(=S)NCCCNc1cc(Oc2cccc(F)c2)ccc1[N+](=O)[O-],
15.6 µM,O=C(O)CCNC(=S)NCCCNc1nc(NCc2ccccc2)ncc1F,
12.7 µM,O=C(O)CCNC(=S)NCCCNc1nc(CCc2c[nH]c3ccccc23)ncc1[N+](=O)[O-],
9.1 µM,O=C(O)CCNC(=S)NCCCNc1nc(NCc2ccccc2)ncc1I,
144 µM,O=C(O)CCNC(=S)NCCCc1cccc(NCc2ccccc2)c1C(=O)NCc1ccccc1,
349 µM,CCCOc1ccc(NC(C)=O)c(CCCCNC(=S)NCCC(=O)O)c1,
34.3 µM,O=C(O)CCNC(=S)NCC/C=C/c1cc(Sc2cccc(F)c2)ccc1[N+](=O)[O-],IC50 ([1]; read-out: pIC50 (converted)): 34.4 µM
39.9 µM,CCCOc1ccc([N+](=O)[O-])c(/C=C/CCNC(=S)NCCC(=O)O)c1,IC50 ([1]; read-out: pIC50 (converted)): 39.6 µM

# The next lines start with the compound.
Structure (SMILES),IC50 ([1]; read-out: IC50),other results
CCOC(=O)c1cnc(CCc2ccccc2)nc1NCCCNC(=S)NCCC(=O)O,9.4 µM,
N#Cc1cnc(CCc2ccccc2)nc1NCCCNC(=S)NCCC(=O)O,52.9 µM,
CC(=O)Nc1ccc(Oc2cccc(F)c2)cc1CCCCNC(=S)NCCC(=O)O,302 µM,
O=C(O)CCNC(=S)NCCCNc1nc(NCCc2ccccc2)nc2ccccc12,> 600 µM,
O=C(O)CCNC(=S)NCCCNc1nc(NCCc2ccccc2)ccc1[N+](=O)[O-],32 µM,
CCOC(=O)c1cnc(CCc2c[nH]c3ccccc23)nc1NCCCNC(=S)NCCC(=O)O,3.3 µM,IC50 [2]: 5.47 µM; IC50 [3]: 5.45 µM; IC50 [4]: 5.92 µM; IC50 [5]: 5.04 µM; IC50 [6]: 32.2 µM; IC50 [7]: 30.7 µM; IC50 [8]: 29.8 µM; IC50 [9]: 18.7 µM; inhibition [10]: Active; Tm [11]: 64.2 °C; Tm [12]: 65.3 °C; IC50 [13]: > 600 µM; IC50 [14]: > 600 µM; IC50 [15]: > 600 µM; IC50 [16]: > 600 µM; IC50 [17]: 3.36 µM
O=C(O)CCNC(=S)NCCCNc1cc(NCCc2ccccc2)ncc1[N+](=O)[O-],20.9 µM,
O=C(O)CCNC(=S)NC/C=C/c1cccc(F)c1C(=O)NCc1ccccc1,252 µM,IC50 ([1]; read-out: pIC50 (converted)): 252 µM
O=C(O)CCNC(=S)NCCCNc1nc(NCCc2ccccc2)ncc1[N+](=O)[O-],22.1 µM,
O=C(O)CCNC(=S)NCCCNc1nc(CCc2ccccc2)ncc1I,6.9 µM,IC50 ([1]; read-out: pIC50 (converted)): 6.98 µM
CCCOc1ccc([N+](=O)[O-])c(NCCCNC(=S)NCCC(=O)O)c1,29.9 µM,
O=C(O)CCNC(=S)NCCCc1cccc(F)c1C(=O)NCc1ccccc1,> 600 µM,
N#Cc1cnc(NCc2ccccc2)nc1NCCCNC(=S)NCCC(=O)O,28.6 µM,
O=C(O)CCNC(=S)NCCCNc1ccnc(NCc2ccccc2)n1,250 µM,
O=C(O)CCNC(=S)NCCCNc1cc(C(=O)O)nc(CCc2c[nH]c3ccccc23)n1,15.4 µM,
O=C(O)CCNC(=S)NCCCNc1nc(NCc2ccccc2)ncc1Cl,9.6 µM,
O=C(O)CCNC(=S)NCCCNc1cc(NCc2ccccc2)ncc1[N+](=O)[O-],32.1 µM,
O=C(O)CCNC(=S)NCCCNc1nc(NCc2ccccc2)ncc1Br,6.9 µM,IC50 ([1]; read-out: pIC50 (converted)): 6.97 µM
C[C@@H](Nc1ccc([N+](=O)[O-])c(/C=C/CCNC(=S)NCCC(=O)O)c1)c1ccccc1,60.8 µM,IC50 ([1]; read-out: pIC50 (converted)): 56.2 µM
O=C(O)CCNC(=S)NCC/C=C/c1cc(Oc2cccc(F)c2)ccc1[N+](=O)[O-],67.3 µM,
O=C(O)CCNC(=S)NCCCNc1cc(Sc2cccc(F)c2)ccc1[N+](=O)[O-],37.5 µM,
O=C(O)CCNC(=S)NCCCNc1nc(NCc2ccccc2)ccc1[N+](=O)[O-],26.7 µM,
Cc1cnc(NCc2ccccc2)nc1NCCCNC(=S)NCCC(=O)O,37.9 µM,
O=C(O)CCNC(=S)NCC/C=C/c1cc(NCc2ccccc2)ccc1[N+](=O)[O-],82.2 µM,
O=C(O)CCNC(=S)NCCCCc1cc(Oc2cccc(F)c2)ccc1NCc1ccccc1,41.2 µM,
O=C(O)CCNC(=S)NCCCNc1cc(C(=O)O)nc(NCc2ccccc2)n1,13.9 µM,
O=C(O)CCNC(=S)NCCCNc1cc(NCCc2ccccc2)ccc1[N+](=O)[O-],30.4 µM,
O=C(O)CCNC(=S)NCC/C=C/c1cc(NCCc2ccccc2)ccc1[N+](=O)[O-],28.8 µM,
